Data taken from PubChem BioAssay AID2060500 (Molecular Pharmacology Branch, DTP, NCI, 2025).

Test system: 596521-263-R-J1-PDC complex spheroids, viability % of control
Test: Anticancer human tumor 596521-263-R-J1-PDC patient-derived soft tissue sarcoma cell line growth inhibition [GQUAD]
Conditions: for IC50: curve of first compound; for viability, T/C: stronger effect = lower value
In short: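 Tumor cells were grown as complex spheroids with HUVEC endothelial cells and mesenchymal stem cells as stroma. G-quadruplex stabilizers were combined with targeted agents over half-log dilutions from near the clinical Cmax, or from 10 microM.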

[1] = second compound 0.0316 µM, first compound 0.0316 µM
[2] = second compound 0.0316 µM, first compound 0.1 µM
[3] = second compound 0.0316 µM, first compound 0.316 µM
[4] = second compound 0.0316 µM, first compound 1 µM
[5] = second compound 0.0316 µM, first compound 3.16 µM
[6] = second compound 0.0316 µM, first compound 10 µM
[7] = second compound 0.1 µM, first compound 0.0316 µM
[8] = second compound 0.1 µM, first compound 0.1 µM
[9] = second compound 0.1 µM, first compound 0.316 µM
[10] = second compound 0.1 µM, first compound 1 µM
[11] = second compound 0.1 µM, first compound 3.16 µM
[12] = second compound 0.1 µM, first compound 10 µM
[13] = second compound 0.316 µM, first compound 0.0316 µM
[14] = second compound 0.316 µM, first compound 0.1 µM
[15] = second compound 0.316 µM, first compound 0.316 µM
[16] = second compound 0.316 µM, first compound 1 µM
[17] = second compound 0.316 µM, first compound 3.16 µM
[18] = second compound 0.316 µM, first compound 10 µM
[19] = second compound 1 µM, first compound 0.0316 µM
[20] = second compound 1 µM, first compound 0.1 µM
[21] = second compound 1 µM, first compound 0.316 µM
[22] = second compound 1 µM, first compound 1 µM
[23] = second compound 1 µM, first compound 3.16 µM
[24] = second compound 1 µM, first compound 10 µM
[25] = second compound 3.16 µM, first compound 0.0316 µM
[26] = second compound 3.16 µM, first compound 0.1 µM
[27] = second compound 3.16 µM, first compound 0.316 µM
[28] = second compound 3.16 µM, first compound 1 µM
[29] = second compound 3.16 µM, first compound 3.16 µM
[30] = second compound 3.16 µM, first compound 10 µM
[31] = second compound 10 µM, first compound 0.0316 µM
[32] = second compound 10 µM, first compound 0.1 µM
[33] = second compound 10 µM, first compound 0.316 µM
[34] = second compound 10 µM, first compound 1 µM
[35] = second compound 10 µM, first compound 3.16 µM
[36] = second compound 10 µM, first compound 10 µM
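Further: spheroids exposed to drugs for 7 days before viability reading.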
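Wherever viability, T/C is given: 100% = DMSO vehicle control viability.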

CC1COCCN1c1cc(C2(O)CC3CCC(C2)O3)c2cnn(-c3ccn[nH]3)c2n1 (stereo not drawn) + Cc1[nH]c2ccc(F)cc2c1-c1nc2c3cccnc3c3ncccc3c2[nH]1
IC50 (second compound 0.0316 µM): 0.28 µM
IC50 (second compound 0.1 µM): 0.267 µM
IC50 (second compound 0.316 µM): 0.207 µM
IC50 (second compound 1 µM): 0.327 µM
IC50 (second compound 3.16 µM): 0.233 µM
IC50 (second compound 10 µM): 0.131 µM
viability, T/C [1]: 68.8%
viability, T/C [2]: 56.8%
viability, T/C [3]: 52.6%
viability, T/C [4]: 32.8%
viability, T/C [5]: 23%
viability, T/C [6]: 12.4%
viability, T/C [7]: 77.5%
viability, T/C [8]: 60.1%
viability, T/C [9]: 48.9%
viability, T/C [10]: 35.1%
viability, T/C [11]: 25.6%
viability, T/C [12]: 14.6%
viability, T/C [13]: 64.8%
viability, T/C [14]: 54.1%
viability, T/C [15]: 48.8%
viability, T/C [16]: 34.2%
viability, T/C [17]: 25.3%
viability, T/C [18]: 13.1%
viability, T/C [19]: 72.4%
viability, T/C [20]: 62.7%
viability, T/C [21]: 52%
viability, T/C [22]: 33.8%
viability, T/C [23]: 25.6%
viability, T/C [24]: 16.1%
viability, T/C [25]: 63.9%
viability, T/C [26]: 59.4%
viability, T/C [27]: 47%
viability, T/C [28]: 32.2%
viability, T/C [29]: 26%
viability, T/C [30]: 14.9%
viability, T/C [31]: 54.4%
viability, T/C [32]: 55%
viability, T/C [33]: 42.4%
viability, T/C [34]: 27.6%
viability, T/C [35]: 25.3%
viability, T/C [36]: 14.2%

CC1COCCN1c1cc(C2(S(C)(=N)=O)CC2)nc(-c2ccnc3[nH]ccc23)n1 (stereo not drawn) + Cc1[nH]c2ccc(F)cc2c1-c1nc2c3cccnc3c3ncccc3c2[nH]1
IC50 (second compound 0.0316 µM): > 10 µM
IC50 (second compound 0.1 µM): 8.24 µM
IC50 (second compound 0.316 µM): 7.65 µM
IC50 (second compound 1 µM): > 10 µM
IC50 (second compound 3.16 µM): 6.02 µM
IC50 (second compound 10 µM): 4.76 µM
viability, T/C [1]: 94.5%
viability, T/C [2]: 92.9%
viability, T/C [3]: 92.1%
viability, T/C [4]: 79.2%
viability, T/C [5]: 64.5%
viability, T/C [6]: 50.9%
viability, T/C [7]: 104%
viability, T/C [8]: 95.5%
viability, T/C [9]: 90.8%
viability, T/C [10]: 79.6%
viability, T/C [11]: 63.1%
viability, T/C [12]: 47.2%
viability, T/C [13]: 100%
viability, T/C [14]: 111%
viability, T/C [15]: 98.5%
viability, T/C [16]: 84.5%
viability, T/C [17]: 62.6%
viability, T/C [18]: 46.1%
viability, T/C [19]: 94.5%
viability, T/C [20]: 92.8%
viability, T/C [21]: 85.5%
viability, T/C [22]: 86.1%
viability, T/C [23]: 67.9%
viability, T/C [24]: 51.4%
viability, T/C [25]: 80.3%
viability, T/C [26]: 89%
viability, T/C [27]: 87.2%
viability, T/C [28]: 65.6%
viability, T/C [29]: 62.6%
viability, T/C [30]: 42.1%
viability, T/C [31]: 80.5%
viability, T/C [32]: 72.6%
viability, T/C [33]: 81%
viability, T/C [34]: 61.7%
viability, T/C [35]: 55.3%
viability, T/C [36]: 43.9%

COc1ccc([C@@H](O)c2cc(-c3ncnc4cc(N5CCOCC5)ccc34)c(F)cc2Cl)nn1 + Cc1[nH]c2ccc(F)cc2c1-c1nc2c3cccnc3c3ncccc3c2[nH]1
IC50 (second compound 0.0316 µM): > 10 µM
IC50 (second compound 0.1 µM): > 10 µM
IC50 (second compound 0.316 µM): > 10 µM
IC50 (second compound 1 µM): > 10 µM
IC50 (second compound 3.16 µM): > 10 µM
IC50 (second compound 10 µM): 6.14 µM
viability, T/C [1]: 96.5%
viability, T/C [2]: 89%
viability, T/C [3]: 94.6%
viability, T/C [4]: 77.9%
viability, T/C [5]: 69.3%
viability, T/C [6]: 52%
viability, T/C [7]: 98.6%
viability, T/C [8]: 89.1%
viability, T/C [9]: 97.7%
viability, T/C [10]: 77.5%
viability, T/C [11]: 64.7%
viability, T/C [12]: 55.4%
viability, T/C [13]: 94.2%
viability, T/C [14]: 105%
viability, T/C [15]: 95.9%
viability, T/C [16]: 89.6%
viability, T/C [17]: 72.2%
viability, T/C [18]: 56.5%
viability, T/C [19]: 94.7%
viability, T/C [20]: 93.8%
viability, T/C [21]: 95.8%
viability, T/C [22]: 81.2%
viability, T/C [23]: 69.1%
viability, T/C [24]: 50.3%
viability, T/C [25]: 89.1%
viability, T/C [26]: 90.9%
viability, T/C [27]: 83%
viability, T/C [28]: 71.3%
viability, T/C [29]: 64.5%
viability, T/C [30]: 50.3%
viability, T/C [31]: 92.2%
viability, T/C [32]: 87.7%
viability, T/C [33]: 82%
viability, T/C [34]: 68.8%
viability, T/C [35]: 61.7%
viability, T/C [36]: 42.4%

O=C(c1cc(Cc2n[nH]c(=O)c3ccccc23)ccc1F)N1CCN(C(=O)C2CC2)CC1 + Cc1[nH]c2ccc(F)cc2c1-c1nc2c3cccnc3c3ncccc3c2[nH]1
IC50 (second compound 0.0316 µM): > 10 µM
IC50 (second compound 0.1 µM): > 10 µM
IC50 (second compound 0.316 µM): > 10 µM
IC50 (second compound 1 µM): > 10 µM
IC50 (second compound 3.16 µM): > 10 µM
IC50 (second compound 10 µM): > 10 µM
viability, T/C [1]: 97.8%
viability, T/C [2]: 97.8%
viability, T/C [3]: 98.6%
viability, T/C [4]: 85.8%
viability, T/C [5]: 89.8%
viability, T/C [6]: 69.8%
viability, T/C [7]: 91.6%
viability, T/C [8]: 83.3%
viability, T/C [9]: 88.3%
viability, T/C [10]: 94.7%
viability, T/C [11]: 76.8%
viability, T/C [12]: 66.2%
viability, T/C [13]: 95%
viability, T/C [14]: 105%
viability, T/C [15]: 91.8%
viability, T/C [16]: 104%
viability, T/C [17]: 78.5%
viability, T/C [18]: 66.3%
viability, T/C [19]: 104%
viability, T/C [20]: 87.9%
viability, T/C [21]: 94.7%
viability, T/C [22]: 85.2%
viability, T/C [23]: 91.4%
viability, T/C [24]: 65.5%
viability, T/C [25]: 94%
viability, T/C [26]: 83.3%
viability, T/C [27]: 88.4%
viability, T/C [28]: 80.8%
viability, T/C [29]: 75.4%
viability, T/C [30]: 57.2%
viability, T/C [31]: 77.4%
viability, T/C [32]: 73.7%
viability, T/C [33]: 75.8%
viability, T/C [34]: 66.2%
viability, T/C [35]: 72.6%
viability, T/C [36]: 58.5%
